Source: patent US20130090364A1, “ANALOGUES FOR THE TREATMENT OR PREVENTION OF FLAVIVIRUS INFECTIONS” (priority 2010, published 2013)
Like-named read-outs stand apart in the source and are kept apart here.

Key:
[1] = test system: HCV (1b) RNA replication (replicon I389Luc-ubi-neo/NS3-3′/5.1); assay: Cell-based luciferase reporter HCV (1b) RNA replication assay, Huh-ET cells; settings: for IC50 / EC50: Hepatitis C virus; for IC50 / IC99 (nM) (1b): Table 4, sub-genomic replicon 1b cell line; for EC50: HCV genotype 1b replicon
Description: Cell-Based Luciferase Reporter HCV (Ib) RNA Replication Assay Cell Culture
Replicon cell lines Huh-5.2 are derived from the Huh-7 hepatocarcinoma cell line are maintained in culture as generally described in Krieger, N; Lohmann, V; Bartenschlager, R. Enhancement of hepatitis C virus RNA replication by cell culture-adaptive mutations. J. Virol. 2001, 75, 4614-4624. The Huh-5.2 cells contain the highly cell culture-adapted replicon I389Luc-ubi-neo/NS3-3′/5.1 construct that carries, in addition to the neomycin gene, an integrated copy to the firefly luciferase gene (Krieger, N; Lohmann, V; Bartenschlager, R. Enhancement of hepatitis C virus RNA replication by cell culture-adaptive mutations. J. Virol. 2001, 75, 4614-4624). This cell line allows measurement of HCV RNA replication and translation by measuring luciferase activity. It has been previously shown that the luciferase activity tightly follows the replicon RNA level in these cells (Krieger, N; Lohmann, V; Bartenschlager, R. Enhancement of hepatitis C virus RNA replication by cell culture-adaptive mutations. J. Virol. 2001, 75, 4614-4624). The Huh-ET cell line has the same features as those mentioned for Huh-5.2 cell line, except that ET cells are more robust and contain an adaptative mutation in the HCV NS4B gene instead of NSSA. Both cell lines are maintained in cultures at a sub-confluent level (<85%) as the level of replicon RNA is highest in actively proliferating cells. The culture media used for cell passaging consist of DMEM (Gibco BRL Laboratories, Mississauga, ON, Canada) supplemented with 10% foetal bovine serum with 1% penicilin/streptomycin, 1% glutamine, 1% sodium pyruvate, 1% non-essential amino acids, and 180 μg/ml of G418 final concentration. Cells are incubated at 37° C., in an atmosphere of 5% CO2 and passaged twice a week to maintain sub-confluence.
Approximately 3000 viable Huh-ET cells (100 μl) are plated per well in a white opaque 96-well microtiter plate. The cell culture media used for the assay is the same as described above except that it contains no G418 and no phenol red. After an incubation period of 3-4 hours at 37° C. in a 5% CO2 incubator, compounds (100 μl) are added at various concentrations. Cells are then further incubated for 4 days at 37° C. in a 5% CO2 incubator. Thereafter, the culture media is removed and cells are lysed by the addition of 95 μL of the luciferase buffer (luciferin substrate in buffered detergent). Cell lysates are incubated at room temperature and protected from direct light for at least 10 minutes. Plates are read for luciferase counts using a luminometer (Wallac MicroBeta Trilux, Perkin Elmer™, MA, USA).
Curves are fitted to data points using nonlinear regression analysis, and IC50s are interpolated from the resulting curve using GraphPad Prism software, version 2.0 (GraphPad Software Inc., San Diego, Calif., USA).

[2] = test system: sub-genomic HCV replicon of genotype 1a; assay: ELISA (NS5A protein level) in sub-genomic replicon 1a cell line W11.8; format: cell-based; settings: for IC50: W11.8, Table 4; for IC99 (nM) (1a): Table 4
Description: Activity Determination Using the ELISA and the Sub-Genomic Replicon 1a Cell Line
The cell line W11.8 containing the sub-genomic HCV replicon of genotype 1a is used to determine the potency of the drugs. The RNA replication in presence of different drug concentrations is indirectly measured in this cell line by the level of NS5A protein content upon drug treatment for four days. It is shown that the level of the NS5A protein correlates well with the level of HCV RNA in the replicon cell line. Cells are split twice a week in order to keep the confluence state below 85% of the culture flask surface area. The culture media used for cell passaging consists of DMEM-10% foetal bovine serum with 100 UI/mL penicillin, 100 μg/mL streptomycin, 2 mM glutamine, 1 mM sodium pyruvate, non-essential amino acids (1×) and 600 μg/mL of G418 final concentrations. Monolayer of the W11.8 cells is trypsinized and cells are counted. Cells are diluted at 50,000 cells/mL with complete DMEM without G418, then approximately 5,000 viable cells (100 μL) are plated per well in a white opaque 96-well microtiter plate. After an incubation period of 2-4 hours at 37° C. in a 5% CO2 incubator, compounds are added at various concentrations. Drugs are resuspended in DMSO at a stock concentration of 10 mM. Then, drugs are serially diluted at twice the final concentration in the same medium. One volume (100 μL) of each drug dilution is then added to each well that contains cells. A control compound is used as an internal standard for each plate assay. Sixteen wells are used as control (0% inhibition) without drug. […] Values from 100% inhibited wells were averaged and used as the background value. Cells are further incubated for four days at 37° C. in a 5% CO2 incubator. Following the incubation time of four days, the media is removed and wells are washed once with 150 μL of PBS at room temperature for five minutes. Cells are then fixed for five minutes using 150 μL per well of cold (−20° C.) fixative solution (50% methanol/50% acetone mix). Cells are then washed twice with 150 μL of PBS (phosphate buffered saline) per well, following the addition of 150 μL of blocking solution, cells are incubated for one hour at 37° C. to block non-specific sites. The blocking solution is removed and cells are washed twice with 150 μL of PBS per well and once with 150 μL of PBSTS solution (PBS/0.1% Triton X-100/0.02% SDS) per well. Then, 50 μL of mouse monoclonal anti-NS5A antibody (Santa Cruz, Cat. No. sc-52417) is added in each well, diluted 1/1,000 in the blocking solution and incubated at 4° C. overnight. Next day, media is removed and plates are washed five times with 150 μL of PBS per well with five-minute incubations at room temperature. Then 50 μL per well of peroxidase-conjugated donkey anti-mouse antibody (Jackson Immunoresearch, Cat. No. 715-036-150) diluted 1/10,000 in the blocking solution is added and incubated at room temperature for three hours on a shaker (500 rpm). Plates are washed four times with 150 μL of PBSTS solution per well and once with 150 μL of PBS. Then, substrate solution (100 μl, SuperSignal ELISA Pico Chemiluminescent Substrate, Fisher Cat. No. 37069) is added in each well and plates are incubated 60 minutes at room temperature prior to reading the luminescence (relative light units) on the Analyst HT plate reader. The percentage of inhibition at each drug concentration tested (in duplicate) is calculated.

[3] = Hepatitis C virus, W11.8, read-out: EC50 (μM) (1a), Table 3

Compound: COC(=O)NC(C(=O)N1C[C@@H](C)C[C@H]1c1nc2sc(-c3ccc(-c4ccc5[nH]c([C@@H]6C[C@H](C)CN6C(=O)[C@@H](NC(=O)OC)C(C)C)nc5c4)cc3)cc2[nH]1)C(C)C (stereo partly shown) [Compound 1c]
- IC50 [1]: 0.011 nM
- IC99 (nM) (1b) [1]: 0.207 nM
- IC50 ([2]; Hepatitis C virus): 1.65 nM
- IC99 (nM) (1a) [2]: 11.155 nM

Compound: COC(=O)N[C@H](C(=O)N1C[C@@H](C)C[C@H]1c1nc2sc(C#CC#Cc3cc4[nH]c([C@@H]5C[C@H](C)CN5C(=O)[C@@H](NC(=O)OC)C(C)C)nc4s3)cc2[nH]1)C(C)C [Compound 4b]
- EC50 [2, 3]: 0.184 µM

Compound: COC(=O)N[C@H](C(=O)N1CCC[C@H]1c1nc2sc(C#CC#Cc3cc4[nH]c([C@@H]5CCCN5C(=O)[C@@H](NC(=O)OC)C(C)C)nc4s3)cc2[nH]1)C(C)C [Compound 3b]
- EC50 [2, 3]: 0.282 µM

Compound: COC(=O)N[C@H](C(=O)N1CCCC1c1nc2cc(C#Cc3cc4[nH]c([C@@H]5CCCN5C(=O)[C@@H](NC(=O)OC)C(C)C)nc4s3)ccc2[nH]1)C(C)C (stereo partly shown) [Compound 1b]
- EC50 [2, 3]: 0.828 µM

Compound: COC(=O)N[C@H](C(=O)N1C[C@@H](C)C[C@H]1c1nc2sc(-c3ccc(-c4ccc5[nH]c([C@@H]6CC[C@H](C)N6C(=O)[C@@H](NC(=O)OC)C(C)C)nc5c4)cc3)cc2[nH]1)C(C)C [Compound 2c]
- IC50 [1]: 0.005 nM
- IC99 (nM) (1b) [1]: 0.303 nM
- IC50 ([2]; Hepatitis C virus): 0.619 nM
- IC99 (nM) (1a) [2]: 10.038 nM

Compound: COC(=O)N[C@H](C(=O)N1C[C@@H](C)C[C@H]1c1ncc(C#Cc2ccc(-c3ccc(-c4cc5[nH]c([C@@H]6C[C@H](C)CN6C(=O)[C@@H](NC(=O)OC)C(C)C)nc5s4)s3)cc2)[nH]1)C(C)C [Compound 21]
- EC50 ([1]; Table 2A): ≤ 5 nM

Compound: COC(=O)N[C@H](C(=O)N1C[C@@H](C)C[C@H]1c1nc2cc(C#Cc3cc4[nH]c([C@@H]5C[C@H](C)CN5C(=O)[C@@H](NC(=O)OC)C(C)C)nc4s3)ccc2[nH]1)C(C)C [Compound 2b]
- EC50 [2, 3]: 0.0403 µM
- EC50 ([2]; read-out: EC50 (μM) (1a), Table 3): 0.0377 µM

Compound: COC(=O)N[C@H](C(=O)N1C[C@@H](C)C[C@H]1c1nc(Cl)c(-c2ccc(-c3ccc(-c4cc5nc([C@@H]6C[C@H](C)CN6C(=O)[C@@H](NC(=O)OC)C(C)C)[nH]c5s4)cc3)cc2)[nH]1)C(C)C [Compound 1a]
- EC50 ([1]; Table 2B): ≤ 5 nM

Compound: COC(=O)N[C@H](C(=O)N1C[C@@H](C)C[C@H]1c1nc2cc(C#Cc3ccc(-c4cc5[nH]c([C@@H]6C[C@H](C)CN6C(=O)[C@@H](NC(=O)OC)C(C)C)nc5s4)cc3)ccc2[nH]1)C(C)C [Compound 14]
- EC50 ([1]; Table 2A): ≤ 5 nM

Compound: COC(=O)N[C@H](C(=O)N1C[C@@H](C)C[C@H]1c1ncc(C#Cc2ccc(-c3cc4[nH]c([C@@H]5C[C@H](C)CN5C(=O)[C@@H](NC(=O)OC)C(C)C)nc4s3)cc2)[nH]1)C(C)C [Compound 12]
- EC50 ([1]; Table 2A): ≤ 5 nM

Compound: COC(=O)N[C@H](C(=O)N1C[C@@H](C)C[C@H]1c1nc(-c2ccc(-c3ccc(-c4cc5[nH]c([C@@H]6C[C@H](C)CN6C(=O)[C@@H](NC(=O)OC)C(C)C)nc5s4)cc3F)cc2)c[nH]1)C(C)C [Compound 6a]
- EC50 ([1]; Table 2B): ≤ 5 nM

Compound: COC(=O)N[C@H](C(=O)N1C[C@@H](C)C[C@H]1c1ncc(-c2ccc(-c3ccc(-c4cc5[nH]c([C@@H]6C[C@H](C)CN6C(=O)[C@@H](NC(=O)OC)C(C)C)nc5s4)s3)cc2)[nH]1)C(C)C [Compound 22]
- EC50 ([1]; Table 2A): ≤ 5 nM

Compound: COC(=O)N[C@H](C(=O)N1C[C@@H](C)C[C@H]1c1nc2sc(-c3ccc(-c4ccc(-c5cc6[nH]c([C@@H]7C[C@H](C)CN7C(=O)[C@@H](NC(=O)OC)C(C)C)nc6s5)s4)cc3)cc2[nH]1)C(C)C [Compound 30]
- EC50 ([1]; Table 2A): ≤ 5 nM

Compound: COC(=O)N[C@H](C(=O)N1C[C@@H](C)C[C@H]1c1ncc(-c2ccc(-c3cc4sc(-c5cc6[nH]c([C@@H]7C[C@H](C)CN7C(=O)[C@@H](NC(=O)OC)C(C)C)nc6s5)cc4s3)cc2)[nH]1)C(C)C [Compound 26]
- EC50 ([1]; Table 2A): ≤ 5 nM

Compound: COC(=O)N[C@H](C(=O)N1C[C@@H](C)C[C@H]1c1nc2cc(/C=C/c3ccc(-c4cc5[nH]c([C@@H]6C[C@H](C)CN6C(=O)[C@@H](NC(=O)OC)C(C)C)nc5s4)cc3)ccc2[nH]1)C(C)C [Compound 17]
- EC50 ([1]; Table 2A): ≤ 5 nM
